Entries after “also recorded” stand apart in the source; their conditions may differ.
What was measured:
OE33 cells = experiment: Cell apoptosis assay (Annexin V/PI flow cytometry); type: cell-based, human; conditions: day 7 of treatment, FIG. 9A
Description: To investigate how Z271-0326 inhibits cell growth in EAC cell lines, the effect of Z271-0326 treatment was evaluated on apoptosis. OE33 was treated either with the GSI DAPT or Z271-0326 every other day, and their effects on apoptosis were analyzed. On day 7 of treatment, cell apoptosis was analyzed using FITC Annexin V/Dead Cell Apoptosis Kit with FIFC annexin V and PI for flow cytometry (Invitrogen, V13242).

HC11 cells = experiment: Colony formation assay in HC11 cells; type: cell-based, mouse; conditions: Notch/NACK independent cell line; FIG. 5B
Description: (§1) A cell based colony formation assay was used in these experiments. Normal mouse mammary epithelia HC11 cells have little or no endogenous NACK expression, and NACK knockdown had no effect on the growth of HC11 cells (FIG. 5A, lower panel). […] Knockdown of NACK was confirmed by western blot and qPCR (FIGS. 1D and 1E). […] Therefore, compounds that affect OE33 colony formation but not HC11 were desired. In order to screen the compounds, cells were treated with test compounds every other day.
(§2) Colony formation assay was utilized to determine the effect of small molecule inhibitors on cell proliferation. In general, different cell lines (NACK dependent or independent) will be seeded in 6-well plates at a density of 2000 cells per well and allowed to attach overnight. Inhibitor treatment commenced 24 hours post seeding, and the media containing inhibitor was changed every 48 hours thereafter. After 168 hours, colonies were be stained with Crystal Violet (Millipore) and counted.

OE33 cell line = experiment: Colony formation assay in OE33 cells; type: cell-based, human; conditions: cells treated every other day; FIGS. 5B, 5C
Description: as §1, §2

HES1 promoter = experiment: Chromatin immunoprecipitation (ChIP) at the HES1 promoter in OE33; type: cell-based, human; conditions: 24 hours, FIG. 8C
Description: Notch/NACK-dependent cells were treated with either DAPT as a positive control, DMSO (vehicle) as a negative control, or compounds for screening for 24 hours. After treatment, cells were cross-linked and sonicated to yield chromatin fragments of approximately 500 bp, as previously described (See Weaver et al., Cancer Research 74, 4741-4751 (2014)). Lysates were immunoprecipitated with either α-Notch1 (Bethyl Laboratories, Montgomery, TX; A301-894A), α-Maml1 (Cell Signaling, 12166s), α-NACK (Bethyl Laboratories, A302-675A), or α-PoIII pSer5 (Abcam, ab5131) antibodies. DNA immunoprecipitates were cleaned using the PCR purification Kit (Qiagen). DNA were detected by Syber green qPCR using HES1 specific oligonucleotide primers (forward: 5′CGTGTCTCCTCCTCCCATT3′ (SEQ ID NO: 2); reverse: 5′GGGGGATTCCGCTGTTAT3′ (SEQ ID NO:3)).

C[C@H](NC(=O)Cc1cc(F)cc(F)c1)C(=O)N[C@H](C(=O)OC(C)(C)C)c1ccccc1 [DAPT, reference compound]
increase in the percent of cells undergoing apoptosis compared to the control (OE33 cells): twofold | HC11 colony formation / viability (HC11 cells): did not alter the viability of HC11 cells; also recorded: insensitive | OE33 colony formation (OE33 cell line): reduction in the colony formation | binding of N1ICD and NACK to the HES1 promoter (HES1 promoter): abrogated the binding of N1ICD and NACK to the HES1 promoter

From US12077508B2, “Inhibitors of the Notch transcriptional activation complex kinase (“NACK”) and methods for use of the same” (UNIVERSITY OF MIAMI, priority 2018, dated 2024)
